Assay type in all cases: biochemical
The target of one experiment is T1, HDAC9 (Homo sapiens, UniProt Q9UKV0).
T1 construct: TwinStrep-FLAG-HALO (N, cleaved yes); made in house; host or cells: HEK293/T17
Nature of the experiment: Fluorometric HDAC inhibition assay, HDAC9. The conditions noted are these: purified human protein; Boc-[Lys-TFA]-AMC substrate 10 μM; 15 min preincubation. The method, then: (§1) Large-scale expression of recombinant human HDACs was carried out as described previously.[32],[37] Briefly, HEK293/T17 cells were transiently transfected with expression pMM222 plasmids comprising N-terminally tagged (TwinStrep-FLAG-HALO tag; Figure S1) HDAC genes using linear poly(ethyleneimine) (PEI, Polysciences Inc.). Cells were harvested three days post-transfection, and cell pellets were resuspended in the lysis buffer (100 mM Tris-HCl, 10 mM NaCl, 5 mM KCl, 2 mM MgCl2, and 10% glycerol at pH 8.0). Cells were disrupted by sonication, cell lysates were cleared by centrifugation, and soluble fusion proteins were first purified by Streptactin affinity chromatography (IBA). For all HDACs but HDACs 1, 10, and 11, the N-terminal tag was cleaved off overnight by the addition of TEV protease (10:1 HDAC/TEV ratio). Size-exclusion chromatography on a Superose 6 column (GE Healthcare Bio-Sciences; running buffer 30 mM HEPES, 140 mM NaCl, 10 mM KCl, 3% glycerol, and 0.25 mM TCEP) was used as the final purification step for all HDAC constructs.
(§2) Optimized fluorometric assays were used to determine inhibition constants of studied compounds against individual HDAC isoforms as described previously.[32] Briefly, reactions were performed in the activity buffer comprising 50 mM HEPES, 140 mM NaCl, and 10 mM KCl at pH 7.4 supplemented with 1 mg mL^–1 bovine serum albumin (BSA), 1 mM tris(2-carboxyethyl)phosphine (TCEP), 10 μM substrates, and optimized concentrations of HDACs. The Ac-Gly-Ala-[Lys-Ac]-7-amino-methylcoumarylamide (AMC) substrate was used to profile HDACs 1, 2, 3, and 6; Boc-[Lys-TFA]-7-amino-methylcoumarylamide was used for HDACs 4, 5, 7, 8, and 9 (both substrates: Bachem); fluorescein-labeled N8-acetylspermidine was used for HDAC10;[32] and an internally quenched TNFα-derived peptide derivative was used for HDAC11.[39] Deacetylation reactions were monitored either by high-performance liquid chromatography (HPLC) (HDAC10) or by quantification of released AMC (λex/λem = 365/440 nm) using a CLARIOstar plate reader (BMG Labtech GmbH).

Another experiment concerns the target T2, HDAC3 (Homo sapiens, UniProt O15379).
T2 construct: TwinStrep-FLAG-HALO (N, cleaved yes); made in house; host or cells: HEK293/T17
Description: Fluorometric HDAC inhibition assay, HDAC3. The conditions noted are these: purified human protein; Ac-Gly-Ala-[Lys-Ac]-AMC substrate 10 μM; 15 min preincubation. The method, then: as §1, §2

The next experiment addresses T3, HDAC8 (Homo sapiens, UniProt Q9BY41).
T3 construct: TwinStrep-FLAG-HALO (N, cleaved yes); made in house; host or cells: HEK293/T17
T3 sequence (Q9BY41 1-377): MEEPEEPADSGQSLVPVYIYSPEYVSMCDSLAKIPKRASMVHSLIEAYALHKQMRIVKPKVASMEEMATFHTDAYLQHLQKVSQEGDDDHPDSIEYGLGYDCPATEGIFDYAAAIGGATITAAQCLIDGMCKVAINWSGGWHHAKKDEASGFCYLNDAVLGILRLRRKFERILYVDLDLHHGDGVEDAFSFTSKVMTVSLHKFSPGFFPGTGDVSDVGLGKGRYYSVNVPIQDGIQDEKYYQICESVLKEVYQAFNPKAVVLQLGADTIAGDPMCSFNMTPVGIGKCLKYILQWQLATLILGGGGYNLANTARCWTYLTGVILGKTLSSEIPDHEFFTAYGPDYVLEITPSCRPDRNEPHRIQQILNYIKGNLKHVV
Description: Fluorometric HDAC inhibition assay, HDAC8. The conditions noted are these: purified human protein; Boc-[Lys-TFA]-AMC substrate 10 μM; 15 min preincubation. The method, then:
as §1, §2

In the next experiment the target is T4, HDAC7 (Homo sapiens, UniProt Q8WUI4).
T4 construct: TwinStrep-FLAG-HALO (N, cleaved yes); made in house; host or cells: HEK293/T17
T4 sequence (Q8WUI4 1-952): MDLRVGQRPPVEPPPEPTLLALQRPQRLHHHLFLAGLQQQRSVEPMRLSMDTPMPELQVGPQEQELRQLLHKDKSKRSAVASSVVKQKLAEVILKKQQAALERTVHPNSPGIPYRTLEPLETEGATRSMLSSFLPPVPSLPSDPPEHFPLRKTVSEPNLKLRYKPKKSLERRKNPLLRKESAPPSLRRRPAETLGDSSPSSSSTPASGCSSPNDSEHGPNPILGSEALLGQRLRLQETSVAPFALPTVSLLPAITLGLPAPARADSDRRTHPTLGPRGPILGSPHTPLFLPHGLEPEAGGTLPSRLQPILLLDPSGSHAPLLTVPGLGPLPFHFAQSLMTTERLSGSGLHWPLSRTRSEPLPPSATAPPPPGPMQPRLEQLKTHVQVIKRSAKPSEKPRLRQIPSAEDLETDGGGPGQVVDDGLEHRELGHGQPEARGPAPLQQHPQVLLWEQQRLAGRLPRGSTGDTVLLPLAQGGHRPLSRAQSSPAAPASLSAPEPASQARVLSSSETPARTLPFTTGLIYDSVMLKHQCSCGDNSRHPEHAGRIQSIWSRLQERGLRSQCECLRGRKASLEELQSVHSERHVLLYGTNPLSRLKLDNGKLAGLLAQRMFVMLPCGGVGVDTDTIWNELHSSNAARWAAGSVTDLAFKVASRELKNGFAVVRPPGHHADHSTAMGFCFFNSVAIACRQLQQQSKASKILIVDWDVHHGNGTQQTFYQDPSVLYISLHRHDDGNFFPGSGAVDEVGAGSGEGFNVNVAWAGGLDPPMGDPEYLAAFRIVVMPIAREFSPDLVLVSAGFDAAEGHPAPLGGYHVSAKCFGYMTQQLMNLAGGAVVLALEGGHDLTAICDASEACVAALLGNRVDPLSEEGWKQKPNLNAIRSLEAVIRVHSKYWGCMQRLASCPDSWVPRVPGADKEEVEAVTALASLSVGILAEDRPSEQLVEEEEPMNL
Nature of the experiment: Fluorometric HDAC inhibition assay, HDAC7. The conditions noted are these: purified human protein; Boc-[Lys-TFA]-AMC substrate 10 μM; 15 min preincubation. The method, then: as §1, §2

T1 sequence (Q9UKV0 whole entry): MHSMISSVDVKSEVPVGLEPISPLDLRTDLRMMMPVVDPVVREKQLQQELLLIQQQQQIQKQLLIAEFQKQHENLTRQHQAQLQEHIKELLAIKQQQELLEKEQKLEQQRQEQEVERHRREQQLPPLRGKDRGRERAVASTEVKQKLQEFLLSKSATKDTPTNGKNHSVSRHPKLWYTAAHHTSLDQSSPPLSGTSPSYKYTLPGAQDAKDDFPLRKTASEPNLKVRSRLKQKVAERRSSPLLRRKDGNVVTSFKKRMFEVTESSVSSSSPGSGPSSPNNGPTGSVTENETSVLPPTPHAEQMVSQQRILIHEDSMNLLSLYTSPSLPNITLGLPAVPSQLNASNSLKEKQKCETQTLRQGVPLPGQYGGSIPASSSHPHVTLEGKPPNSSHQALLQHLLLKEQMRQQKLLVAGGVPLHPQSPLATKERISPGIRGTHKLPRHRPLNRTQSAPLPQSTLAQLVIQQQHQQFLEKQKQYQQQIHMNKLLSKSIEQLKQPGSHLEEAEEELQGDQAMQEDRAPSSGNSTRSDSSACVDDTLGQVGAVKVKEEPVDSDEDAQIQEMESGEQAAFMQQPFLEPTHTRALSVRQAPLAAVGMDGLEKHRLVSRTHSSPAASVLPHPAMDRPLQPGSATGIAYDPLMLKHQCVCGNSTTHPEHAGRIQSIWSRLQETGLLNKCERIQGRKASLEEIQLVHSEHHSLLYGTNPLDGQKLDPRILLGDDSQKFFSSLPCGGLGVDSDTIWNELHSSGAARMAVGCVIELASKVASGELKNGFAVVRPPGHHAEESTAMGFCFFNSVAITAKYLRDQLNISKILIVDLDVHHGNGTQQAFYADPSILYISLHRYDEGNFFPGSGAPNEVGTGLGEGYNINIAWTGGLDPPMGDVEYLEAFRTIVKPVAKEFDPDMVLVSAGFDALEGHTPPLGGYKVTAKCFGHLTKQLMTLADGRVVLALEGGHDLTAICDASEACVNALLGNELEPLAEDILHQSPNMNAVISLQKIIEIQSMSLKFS
T2 sequence (O15379 whole entry): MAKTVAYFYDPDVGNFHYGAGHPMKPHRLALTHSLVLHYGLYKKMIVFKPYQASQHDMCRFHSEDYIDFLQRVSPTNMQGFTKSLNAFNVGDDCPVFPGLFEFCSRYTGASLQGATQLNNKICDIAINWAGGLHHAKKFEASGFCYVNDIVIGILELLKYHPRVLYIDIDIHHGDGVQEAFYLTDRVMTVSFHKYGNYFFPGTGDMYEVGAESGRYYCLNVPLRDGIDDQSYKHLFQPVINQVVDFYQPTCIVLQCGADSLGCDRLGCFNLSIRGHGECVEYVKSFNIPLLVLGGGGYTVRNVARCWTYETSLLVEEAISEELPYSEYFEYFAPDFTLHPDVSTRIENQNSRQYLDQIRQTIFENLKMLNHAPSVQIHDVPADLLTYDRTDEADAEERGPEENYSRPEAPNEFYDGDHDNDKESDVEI
T2 sequence (Q9Y618 389-480 partner limits assumed): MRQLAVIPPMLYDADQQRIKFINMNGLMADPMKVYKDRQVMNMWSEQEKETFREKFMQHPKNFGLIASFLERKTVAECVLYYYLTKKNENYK

By IC50 is commonly meant the concentration that inhibits the measured activity by half. The low end stands for inhibition by little substance, the high end for a need for much substance. In the case of `CS(=O)(=O)N(Cc1ccc(-c2nnc(C(F)F)o2)cn1)c1cccc(Cl)c1` [compound 8], the 50% inhibitory concentration (IC50) against HDAC9, on HDAC3, against HDAC8 and against HDAC7 was above 20 µM in each case.

Take `CS(=O)(=O)N(Cc1ccc(-c2nnc(C(F)(F)F)o2)cn1)c1cccc(Cl)c1` [compound 7]: the IC50 at HDAC9, against HDAC3, at HDAC8 and on HDAC7 was above 20 µM throughout.

Consider `CS(=O)(=O)N(Cc1ccc(C(=O)NN)cn1)c1cccc(Cl)c1` [compound 4], for which the concentration for half-maximal inhibition (IC50) on HDAC9, against HDAC3, against HDAC8 and on HDAC7 was above 20 µM each time.

At HDAC8, `CS(=O)(=O)N(Cc1ccc(C(=O)NNC(=O)C(F)(F)F)cn1)c1cccc(Cl)c1` [compound 5] returned an IC50 above 20 µM.

Molecule `CS(=O)(=O)N(Cc1ccc(C(=O)NNC(=O)C(F)F)cn1)c1cccc(Cl)c1` [compound 6] displayed an IC50 on HDAC8 above 20 µM.

For the origin of these results see article PMC10367051, “Comprehensive Mechanistic View of the Hydrolysis of Oxadiazole-Based Inhibitors by Histone Deacetylase 6 (HDAC6)” (ACS Chemical Biology, 2023).
